Some test systems named below: COLO 205; HT-29; SK-OV-3; SF-295; SK-MEL-2; HL-60; KM12; A498; 786-0; IGROV-1; LOX IMVI; NCI-H460; NCI-H522; SF-268; HCT-116; RXF 393; SN12C; HCT-15; CCRF-CEM; UACC-62.
Test in all cases: NCI anticancer screen, dose series, 48 h

The values that follow come from ChEMBL document CHEMBL1201862, “PubChem BioAssay data set” (2004).

Structures are written as SMILES.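 In this assay, cells in 96-well plates receive the compound at five concentrations for 48 hours. Endpoints are linearly interpolated between the surrounding concentrations. GI50 is the concentration that inhibits growth by half.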 Active and inactive are the calls of the source. Rule as the data show it: active = GI50 up to about 1.1 µM and inactive = higher. A value given as a limit tells only on which side of the number the result lay.

As for `CC(=O)NNc1nc(C)c(C(/C=C/c2ccc(Cl)cc2)=N\NS(=O)(=O)c2ccc(C)cc2)s1`, the GI50 with COLO 205, in the test with HT-29, with SK-OV-3, with SF-295, in the test on SK-MEL-2 and with HL-60 was > 100 µM (inactive) in each case. Also, the GI50 in the test on KM12, with A498, in the test with 786-0, in the test with IGROV-1, in the test with LOX IMVI and in the test on NCI-H460 was > 100 µM (inactive) throughout. For the same compound, the GI50 is > 100 µM (inactive) in the test with NCI-H522; > 100 µM (inactive) in the test on SF-268; > 100 µM (inactive) in the test on HCT-116; > 100 µM (inactive) with RXF 393; > 100 µM (inactive) with SN12C; above 100 µM in the test on HCT-15. The GI50 in the test on CCRF-CEM and with UACC-62 was > 100 µM (inactive) in each case.
Take `CSc1ccc2c(cc1=O)[C@@H](NC(=O)c1cccc([N+](=O)[O-])c1)CCc1cc(O)c(O)c(O)c1-2`: the GI50 in the test with COLO 205 was 38.9 µM (inactive); in the test on HT-29 it was 37.8 µM (inactive); in the test on SK-OV-3, 42.4 µM (inactive); in the test with SF-295 it was 42.4 µM (inactive); in the test on SK-MEL-2, 34.8 µM (inactive); with HL-60, 26.1 µM (inactive). For the same compound, the GI50 in the test with KM12 is 31.2 µM (inactive); in the test with A498, 27.7 µM (inactive); in the test on 786-0, 61.2 µM (inactive); in the test with IGROV-1, 46.2 µM (inactive); in the test with LOX IMVI, 17.5 µM (inactive); in the test with NCI-H460 it was 54.2 µM (inactive). Moreover, the GI50 is 12.6 µM (inactive) in the test on NCI-H522; 57.9 µM (inactive) in the test with SF-268; 20 µM (inactive) in the test with HCT-116; 51.2 µM (inactive) in the test on RXF 393; 27.3 µM (inactive) in the test with SN12C; 36.3 µM with HCT-15. In addition, the GI50 was 34 µM (inactive) with CCRF-CEM and 18.3 µM (inactive) in the test with UACC-62.
In the case of `COC(=O)C(=O)Nc1cc2c3c(c1)Oc1cccc4c1C3(C)c1c(cccc1O2)O4`, the GI50 with COLO 205 is > 31.6 µM (inactive); with SK-OV-3, > 100 µM (inactive); with SF-295 it was > 100 µM (inactive); in the test with SK-MEL-2, > 87.7 µM (inactive); in the test on HL-60 it was 0.105 µM (active); in the test with KM12, > 100 µM (inactive). The GI50 in the test on A498 was 39.7 µM (inactive); in the test with 786-0, 30.9 µM (inactive); in the test with IGROV-1 it was 55.8 µM (inactive); in the test with LOX IMVI it was 71.3 µM (inactive); in the test on NCI-H460, > 100 µM (inactive); with NCI-H522 it was > 86.3 µM (inactive). For the same compound, the GI50 in the test with SF-268 is > 100 µM (inactive); in the test on HCT-116 it was > 75.2 µM (inactive); in the test on RXF 393 it was 18.7 µM (inactive); with SN12C it was > 69.5 µM (inactive); with HCT-15, 97.5 µM; in the test with CCRF-CEM, 1.26 µM (inactive). Also, the GI50 in the test on UACC-62 was > 100 µM (inactive).
With `N#CC[C@@H](O)COc1ccccc1`, the GI50 with COLO 205, in the test on HT-29, in the test on SK-OV-3, in the test with SF-295, in the test on SK-MEL-2 and with HL-60 was > 100 µM (inactive) throughout. Further, the GI50 in the test with KM12, in the test on A498, in the test with 786-0, in the test on LOX IMVI, with NCI-H460 and with NCI-H522 was > 100 µM (inactive) each time. For the same compound, the GI50 with SF-268 is > 100 µM (inactive); in the test with HCT-116 it was > 100 µM (inactive); in the test on RXF 393, > 100 µM (inactive); in the test with SN12C, > 100 µM (inactive); in the test with HCT-15, above 100 µM; in the test on CCRF-CEM, > 100 µM (inactive). Further, in the test with UACC-62, the GI50 is > 100 µM (inactive).
Turning to `CCN1c2ccccc2-c2c3c1cc(C)cc3c1ccccc1[n+]2CC`, the GI50 with HT-29 is 1.41 µM (inactive); in the test with SK-OV-3 it was 1.83 µM (inactive); in the test on SF-295, 0.78 µM (active); with SK-MEL-2, 1.21 µM (inactive); with HL-60, 1.16 µM (inactive); in the test on KM12, 0.339 µM (active). Moreover, the GI50 in the test on A498 is 3.26 µM (inactive); in the test on 786-0 it was 1.59 µM (inactive); in the test with IGROV-1, 1.66 µM (inactive); in the test on LOX IMVI it was 0.386 µM (active); with NCI-H460, 1.23 µM (inactive); in the test with NCI-H522, 1.26 µM (inactive). For the same compound, the GI50 is 0.522 µM (active) in the test with SF-268; 0.644 µM (active) in the test with HCT-116; 2.96 µM (inactive) in the test on RXF 393; 0.659 µM (active) in the test on SN12C; 6.22 µM in the test with HCT-15; 0.621 µM (active) with CCRF-CEM. The GI50 in the test on UACC-62 was 0.743 µM (active).
For `CSS(C)(=O)=O`, the GI50 in the test on COLO 205 was 1.95 µM (inactive); in the test on HT-29 it was 31 µM (inactive); with SF-295, 23.1 µM (inactive); in the test with SK-MEL-2, 27.3 µM (inactive); with HL-60, 24.9 µM (inactive); with KM12, 34.3 µM (inactive). Moreover, the GI50 in the test on A498 is > 100 µM (inactive); in the test on 786-0 it was 39.6 µM (inactive); in the test on IGROV-1, 23.2 µM (inactive); in the test on LOX IMVI, 60.1 µM (inactive); in the test on NCI-H460, > 100 µM (inactive); in the test on NCI-H522 it was 18.2 µM (inactive). For the same compound, the GI50 is 31.5 µM (inactive) with SF-268; 58.6 µM (inactive) with HCT-116; 26.5 µM (inactive) with RXF 393; 21.5 µM (inactive) with SN12C; 24.9 µM in the test on HCT-15; < 0.01 µM (active) in the test on CCRF-CEM. In the test on UACC-62, the GI50 was 19.4 µM (inactive).
With `Cc1c(CCO)c(O)n2c(nc3ccccc32)c1C#N`, the GI50 in the test with COLO 205 was > 100 µM (inactive); with HT-29, 44.3 µM (inactive); in the test with SK-OV-3, > 100 µM (inactive); in the test on SF-295 it was > 100 µM (inactive); in the test on SK-MEL-2, 91.6 µM (inactive); with HL-60, 10 µM (inactive). The GI50 in the test with KM12 was > 100 µM (inactive); in the test with A498 it was > 100 µM (inactive); with 786-0, 66.4 µM (inactive); in the test with IGROV-1, 68.4 µM (inactive); in the test on LOX IMVI, 68.7 µM (inactive); in the test with NCI-H460, 26.7 µM (inactive). Besides, the GI50 with NCI-H522 was 34.7 µM (inactive); with SF-268, > 100 µM (inactive); in the test on HCT-116, 41.3 µM (inactive); in the test on RXF 393, > 100 µM (inactive); in the test with HCT-15, 45.7 µM; in the test on CCRF-CEM it was 29.4 µM (inactive). Further, the GI50 with UACC-62 is > 100 µM (inactive).
Take `COc1cc(C(=C2SCCS2)c2nccc3cc(OC)c(OC)cc23)c([N+](=O)[O-])cc1OC`: the GI50 is 35.3 µM (inactive) in the test with COLO 205; 58.9 µM (inactive) in the test with HT-29; 65.9 µM (inactive) in the test with SK-OV-3; 56 µM (inactive) in the test with SF-295; > 100 µM (inactive) with SK-MEL-2; 10.5 µM (inactive) in the test with HL-60. The GI50 with KM12 is 90.4 µM (inactive); in the test on A498 it was > 100 µM (inactive); in the test with 786-0, 59.3 µM (inactive); in the test on IGROV-1, > 100 µM (inactive); in the test on LOX IMVI, 80.9 µM (inactive); with NCI-H522 it was 36.6 µM (inactive). Besides, the GI50 with SF-268 is 80.9 µM (inactive); in the test with HCT-116 it was 80.4 µM (inactive); with RXF 393, > 100 µM (inactive); in the test with SN12C, 48.9 µM (inactive); in the test on CCRF-CEM, 34.1 µM (inactive); in the test on UACC-62, 74.3 µM (inactive).
`C/C=C(/C)C(=O)OC1CC(C)[C@H]2CC(=O)C(C)=C2CC1C(C)(C)OC(C)=O` (some centres not stated): the GI50 in the test with COLO 205 is 17.9 µM (inactive); in the test on HT-29, 35.5 µM (inactive); in the test with SF-295, 24.7 µM (inactive); in the test on SK-MEL-2 it was 3.95 µM (inactive); in the test with HL-60 it was 21.4 µM (inactive); in the test on KM12, 25.9 µM (inactive). The GI50 is 20.2 µM (inactive) with A498; 43.8 µM (inactive) in the test on 786-0; 53.8 µM (inactive) with IGROV-1; 17.9 µM (inactive) in the test on LOX IMVI; 19.3 µM (inactive) in the test on NCI-H460; 19.5 µM (inactive) in the test with NCI-H522. The GI50 is 58.2 µM (inactive) in the test on SF-268; 19.6 µM (inactive) in the test with HCT-116; 22.5 µM (inactive) in the test with RXF 393; 42 µM (inactive) in the test on SN12C; 19.7 µM in the test on HCT-15; 25.6 µM (inactive) with CCRF-CEM. For the same compound, in the test on UACC-62, the GI50 was 21.8 µM (inactive).
Turning to `Cc1ccc2c(c1)C(=O)C1(C2)Cc2ccc(C)cc2C1=O`, the GI50 in the test with HT-29 is > 100 µM (inactive); in the test with SK-OV-3, > 100 µM (inactive); with SF-295 it was > 100 µM (inactive); in the test on SK-MEL-2, 87.3 µM (inactive); with HL-60 it was > 100 µM (inactive); with A498, > 100 µM (inactive). Moreover, the GI50 in the test on 786-0, in the test on IGROV-1, in the test with LOX IMVI, with NCI-H460, in the test with NCI-H522 and in the test on SF-268 was > 100 µM (inactive) each time. Moreover, the GI50 is > 100 µM (inactive) in the test on HCT-116, > 100 µM (inactive) in the test with RXF 393, above 100 µM in the test with HCT-15 and > 100 µM (inactive) in the test on CCRF-CEM.
In the case of `C=CC(C)CCC(C/C=C(\C)CCCC(C)C)C(=C)CCCC(C)C` (configuration not stated), the GI50 in the test on COLO 205, in the test with SK-OV-3, in the test with SF-295, in the test with SK-MEL-2, with HL-60 and in the test with KM12 was > 100 µM (inactive) in each case. Moreover, the GI50 with A498, in the test with 786-0, with IGROV-1, in the test on LOX IMVI, with NCI-H460 and with NCI-H522 was > 100 µM (inactive) each time. The GI50 was > 100 µM (inactive) with SF-268; > 100 µM (inactive) in the test on HCT-116; > 100 µM (inactive) with RXF 393; > 100 µM (inactive) with SN12C; above 100 µM in the test on HCT-15; > 100 µM (inactive) with CCRF-CEM. Also, in the test with UACC-62, the GI50 was > 100 µM (inactive).
